What all share (format): cell-based
Data set [1] deals with Bacillus subtilis ATCC strain 6633. The experiment in a line: filter paper disk / disc diffusion assay on Bacillus subtilis plate. As to the method: The Bacillus subtilis ATCC strain 6633 was used at 9.2 mL of a log phase culture with […] per 200 mL of Luria-Bertani medium containing 1.5% (w/v) agar. The plate was incubated at 28° C. for 24 hours and the diameter of the clearing zone was measured. Dilutions of the extract and fractions from HPLC chromatography were tested in the same way. In some cases, fractions from the column were tested by evaporating them to dryness, redissolving in methanol and simply spotting 10 μL of the methanolic sample directly onto the bacteriological plate and proceeding as described.

For data set [2] the test system is unchanged. The experiment in a line: NCCLS broth microdilution test, minimum inhibitory concentration. As to conditions: for minimum inhibitory concentration / MIC: B. subtilis; for antimicrobial activity / potency (in words): against the target organism B. subtilis; for MIC: Bacillus subtilis, ATCC6633. The procedure: Minimum inhibitory concentrations with Bacillus subtilis ATCC strain 6633 were determined using the National Committee for Clinical Laboratory Standards broth microdilution test (NCCLS, 2000. NCCLS Document M7-A5—Methods for Dilution Antimicrobial Susceptibility Tests for Bacteria that Grow Aerobically, Approved Standard—Fifth Edition). The test was standardised using penicillin G and gentamicin with Staphyloccous aureus ATCC strains 29213 and 25923 and Enterococcus faecalis ATCC strain 29212. Results of standardisation were assessed according to the NCCLS standards (NCCLS, 2000. NCCLS Document M100-S10(M7)—Performance Standards for Antimicrobial Susceptibility Testing; Tenth Informational Supplement (Aerobic Dilution). NCCLS, Wayne, Pa.).

For data set [3], the system named is NCl-H460, a human-derived small cell lung carcinoma line. The data set can be described thus: mammalian cell growth, WST-1 proliferation assay. Conditions: concentrations up to 100 μg/mL, 19 hours at 37° C. The procedure:
(§1) Effects on mammalian cell growth were determined by exposing cultures of two mammalian neoplastic cell lines (SP2/0—Ag8, a non-secreting mouse myeloma cell line derived from Balb/C mice, and NCl-H460, a human-derived […] lung carcinoma line) to fixed dilutions of the methanolic extract of N. triodiae or to fixed concentrations of fraction 23, (6) for 19 hours at 37° C. Cells were grown in wells of sterile 96-well tissue culture cluster plates by standard methods. Cell growth was estimated using the Cell Proliferation Reagent WST-1 (Roche Diagnostics) according to the manufacturer's instructions and proliferation data were compared with those from untreated control wells.

In data set [4] the test system is SP2/0—Ag8, a non-secreting mouse myeloma cell line. The experiment in a line: mammalian cell growth, WST-1 proliferation assay. Conditions: concentrations up to 30 μg/mL, 19 hours at 37° C. The procedure:
as §1

[5] abbreviates: unknown concentration and mass of the compound, disc diffusion assay.

Compound “1(15),8(19)-trinervitadiene-3α,5α,18-triol 3,5,18-triacetate [Compound 10]” came in with a clear zone diameter in data set [1] (5 μg of compound, disc diffusion assay) of 11 mm. Besides, the minimum inhibitory concentration in data set [2] (broth microdilution, estimated) was greater than 50 µg/mL. The “antimicrobial activity / potency (in words)” value is “reduced but detectable antimicrobial activity” in data set [2] and “active, albeit less potent than the diols or triol” in data set [2] (listed as triacetate).
Take `C=C1CCC[C@H](C)CCC2=C(C)[C@@H]3[C@H]1C[C@@H](O)[C@]3(CO)[C@@H](O)C2` [Compound 6, 1(15),8(19)-trinervitadiene-3α,5α,18-triol]: the “antimicrobial activity of extracts and HPLC fractions (in words)” value in data set [1] (B. subtilis plate test) is “antimicrobial activity was detected”. The same compound gave a minimum inhibitory concentration in data set [2] (as restated in the discussion) of no more than 50 parts per million. The MIC in data set [2] (broth microdilution, estimated) is no more than 50 µg/mL. Moreover, in data set [2], the “antimicrobial activity / potency (in words)” value is “moderately good antimicrobial potency”. In addition, the “inhibitory effect on proliferation of NCl-H460 cells” value in data set [3] is “no detectable inhibitory effect”. In data set [4], the “inhibitory effect on proliferation of SP2/0 cells” value is given as “no detectable inhibitory effect”.
For the compound `C=C1CCC[C@H](C)CCC2=C(C)[C@@H]3[C@H]1C[C@@H](O)[C@]3(C)[C@@H](O)C2` [Compound 7, 1(15),8(19)-trinervitadiene-3α,5α-diol], the zone of inhibition at 5 µg/disc in data set [1] (Bacillus subtilis, ATCC6633, 5 μg of compound, disc diffusion assay, read-out: clear zone diameter) was 7 mm. Besides, in data set [2] (broth microdilution, estimated), the MIC was no more than 50 µg/mL. In data set [2], the “antimicrobial activity / potency (in words)” value is “reduced but detectable antimicrobial activity”.
For `C=C1CCC[C@H](C)CCC2=C(C)[C@@H]3[C@H]1C[C@@H](OC(C)=O)[C@]3(CO)[C@@H](O)C2` [Compound 8, 1(15),8(19)-trinervitadiene-3α,5α,18-triol 5-acetate], in data set [1] (setting [5]), the clear zone diameter is reported as 15 mm. Moreover, the MIC in data set [2] (broth microdilution, estimated) was greater than 50 µg/mL. Besides, the “antimicrobial activity / potency (in words)” value in data set [2] was “reduced but detectable antimicrobial activity”; in data set [2] (listed as monoacetate), “active, albeit less potent than the diols or triol”.
`CC1=C2CC[C@@H](C)CC/C=C(/C)[C@@H]3CC[C@@](C)([C@H]13)[C@@H](O)[C@@H]2O` [Compound 9, 1(15),8(9)-trinervitadiene-2β,3α-diol] had a clear zone diameter in data set [1] (setting [5]) of 15 mm. In data set [2] (as restated in the discussion), this compound had a minimum inhibitory concentration of no more than 25 parts per million. For the same compound, the MIC in data set [2] (broth microdilution, estimated) is no more than 25 µg/mL. In addition, the “antimicrobial potency relative to the triol (6) and diol (7)” value in data set [2] (fold more potent) was 2-4 times. Moreover, in data set [2] (lowest concentration with significant inhibitory activity), the “significant inhibitory activity as low as” value is reported as 12 parts per million.

Source of the values: patent US20060094780A1, “Novel antibiotic compounds” (priority 2000, published 2006).
